Assay [1] concerns the target His6-TEV-PDGFRβ (557-1016) (Homo sapiens (Human), UniProt P09619). In words: PDGFRβ HTRF Assay. The class given is biochemical. As to conditions: read-out: PDGFR HTRF IC50. The gist of the method:
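HTRF KinEASE-TK readout (665/620 nm ratio) of TK-biotin substrate phosphorylation by His-tagged PDGFRβ kinase domain. Enzyme and inhibitor preincubated 30 min, then ATP/substrate added for 3 h at room temperature before 60 min EDTA quench/detection.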
(Time-resolved FRET reads energy transfer from a long-lived donor to a nearby acceptor.)

Assay [2] concerns the target Tb-labeled inactive PDGFRβ (Homo sapiens (Human), UniProt P09619). Nature of the assay: PDGFRβ LanthaScreen Assay. The class given is binding. As to conditions: read-out: PDGFR Lantha IC50.
For another assay, the target named is PDGFRβ (Rattus norvegicus (Rat), UniProt Q05030). In words: PDGFRβ Cellular Assay (PDGFRb P-Y751 HTRF in A10 cells stimulated with PDGF-BB). The class given is cell-based. The gist of the method: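 Phospho-Y751 PDGFRβ was measured by HTRF in lysates of A10 rat cells. Cells received compound for 3 hours before PDGF-BB stimulation (100 ng/mL working stock).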
Chain of PDGFRβ (Q05030 32-1097): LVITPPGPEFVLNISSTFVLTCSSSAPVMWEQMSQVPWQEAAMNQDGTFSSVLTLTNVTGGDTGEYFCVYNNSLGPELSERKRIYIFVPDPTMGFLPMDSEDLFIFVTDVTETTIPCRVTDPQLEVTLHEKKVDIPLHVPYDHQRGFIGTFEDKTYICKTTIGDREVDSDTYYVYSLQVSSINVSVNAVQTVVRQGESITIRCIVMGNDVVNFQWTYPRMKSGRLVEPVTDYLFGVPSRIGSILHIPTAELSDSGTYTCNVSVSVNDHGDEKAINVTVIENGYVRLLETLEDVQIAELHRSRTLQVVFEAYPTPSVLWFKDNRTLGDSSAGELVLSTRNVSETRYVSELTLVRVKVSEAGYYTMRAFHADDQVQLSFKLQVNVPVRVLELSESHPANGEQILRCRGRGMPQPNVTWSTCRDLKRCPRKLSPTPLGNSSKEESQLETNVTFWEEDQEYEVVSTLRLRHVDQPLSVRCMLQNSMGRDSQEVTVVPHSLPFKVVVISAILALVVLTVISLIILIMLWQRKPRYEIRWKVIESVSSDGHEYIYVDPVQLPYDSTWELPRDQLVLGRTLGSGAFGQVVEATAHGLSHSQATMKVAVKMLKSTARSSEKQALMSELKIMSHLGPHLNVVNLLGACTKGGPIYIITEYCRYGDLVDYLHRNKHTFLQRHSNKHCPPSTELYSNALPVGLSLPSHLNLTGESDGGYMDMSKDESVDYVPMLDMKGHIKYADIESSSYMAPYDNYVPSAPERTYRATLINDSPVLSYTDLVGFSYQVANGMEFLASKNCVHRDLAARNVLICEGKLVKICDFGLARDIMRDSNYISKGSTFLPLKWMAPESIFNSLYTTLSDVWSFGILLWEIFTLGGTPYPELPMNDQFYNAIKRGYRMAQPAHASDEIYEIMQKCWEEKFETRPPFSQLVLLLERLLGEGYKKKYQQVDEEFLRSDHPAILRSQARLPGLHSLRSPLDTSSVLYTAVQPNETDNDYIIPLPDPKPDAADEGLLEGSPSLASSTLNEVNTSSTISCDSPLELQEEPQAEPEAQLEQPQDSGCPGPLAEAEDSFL

Where two headings read alike, the source gives them in different places. A value given as a limit tells only on which side of the number the result lay.

As usually defined, the IC50 is the midpoint of a concentration-inhibition curve.

Chain of His6-TEV-PDGFRβ (557-1016) (P09619 557-1016): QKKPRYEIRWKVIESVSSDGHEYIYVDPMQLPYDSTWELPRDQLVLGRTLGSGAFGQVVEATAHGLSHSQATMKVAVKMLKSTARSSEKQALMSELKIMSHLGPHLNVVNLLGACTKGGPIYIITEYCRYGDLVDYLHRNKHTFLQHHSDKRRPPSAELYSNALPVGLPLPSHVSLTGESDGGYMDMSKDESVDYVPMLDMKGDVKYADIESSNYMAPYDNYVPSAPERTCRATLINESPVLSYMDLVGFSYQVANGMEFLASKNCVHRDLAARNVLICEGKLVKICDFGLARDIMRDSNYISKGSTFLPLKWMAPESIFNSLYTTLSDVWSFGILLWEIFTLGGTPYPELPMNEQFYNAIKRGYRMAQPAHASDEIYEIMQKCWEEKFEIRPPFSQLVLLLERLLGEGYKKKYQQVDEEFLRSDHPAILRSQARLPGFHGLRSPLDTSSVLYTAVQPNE
Chain of Tb-labeled inactive PDGFRβ (P09619 33-1106): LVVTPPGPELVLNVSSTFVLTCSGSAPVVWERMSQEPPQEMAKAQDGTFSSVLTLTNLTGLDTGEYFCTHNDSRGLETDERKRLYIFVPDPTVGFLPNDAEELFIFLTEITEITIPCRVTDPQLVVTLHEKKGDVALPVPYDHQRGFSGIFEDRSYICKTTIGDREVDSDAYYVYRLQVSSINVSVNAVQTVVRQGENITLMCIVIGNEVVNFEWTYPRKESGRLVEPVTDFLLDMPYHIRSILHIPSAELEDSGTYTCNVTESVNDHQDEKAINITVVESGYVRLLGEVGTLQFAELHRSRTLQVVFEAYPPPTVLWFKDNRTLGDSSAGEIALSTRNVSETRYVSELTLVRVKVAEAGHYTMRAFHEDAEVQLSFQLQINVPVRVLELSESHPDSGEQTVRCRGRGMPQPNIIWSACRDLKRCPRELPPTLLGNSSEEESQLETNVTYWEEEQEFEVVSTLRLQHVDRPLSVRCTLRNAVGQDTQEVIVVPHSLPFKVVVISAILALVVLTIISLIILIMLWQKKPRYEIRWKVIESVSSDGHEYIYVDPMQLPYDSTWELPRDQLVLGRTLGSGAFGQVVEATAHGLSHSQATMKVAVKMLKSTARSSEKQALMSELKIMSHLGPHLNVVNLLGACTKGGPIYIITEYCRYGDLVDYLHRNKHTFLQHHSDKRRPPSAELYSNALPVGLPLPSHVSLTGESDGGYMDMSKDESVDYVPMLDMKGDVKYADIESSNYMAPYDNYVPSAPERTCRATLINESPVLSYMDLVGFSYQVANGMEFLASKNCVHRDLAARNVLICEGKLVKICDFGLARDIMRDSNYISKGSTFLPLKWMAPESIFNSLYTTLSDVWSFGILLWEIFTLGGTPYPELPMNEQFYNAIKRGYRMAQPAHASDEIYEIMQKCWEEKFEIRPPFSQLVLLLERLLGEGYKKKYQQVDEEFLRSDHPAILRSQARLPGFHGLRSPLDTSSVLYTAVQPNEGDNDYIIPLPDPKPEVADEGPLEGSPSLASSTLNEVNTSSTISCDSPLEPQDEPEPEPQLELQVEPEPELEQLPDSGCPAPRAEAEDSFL

With `Cc1ncc(NC(=O)CN2C[C@@H](C)O[C@H](C)C2)cc1NC(=O)c1cnn2cc(-c3cn(C)nc3C)sc12` [Example 431], the IC50 was determined as 0.5 nM in assay [1], 3.5 nM in assay [2] and 5 nM on PDGFRβ (read-out: PDGFR Cellular IC50).

Take `Cc1ncc(NC(=O)CN2CCCC2(C)C)cc1NC(=O)c1cnn2cc(-c3cnn(CCO)c3)sc12` [Example 447, N-(5-(2-(2,2-dimethylpyrrolidin-1-yl)acetamido)-2-methylpyridin-3-yl)-2-(1-(2-hydroxyethyl)-1H-pyrazol-4-yl)pyrazolo[5,1-b]thiazole-7-carboxamide]: the IC50 is 0.5 nM in assay [1], 3.7 nM in assay [2] and 12.4 nM on PDGFRβ (read-out: PDGFR Cellular IC50).

For `Cc1ncc(NC(=O)NCCN2CCCC2(C)C)cc1NC(=O)c1cnn2cc(-c3cnn(C)c3)sc12` [Example 38, N-(5-(3-(2-(2,2-dimethylpyrrolidin-1-yl)ethyl)ureido)-2-methyl-pyridin-3-yl)-2-(1-methyl-1H-pyrazol-4-yl)pyrazolo[5,1-b]thiazole-7-carboxamide], the IC50 in assay [1] stood at 1.8 nM; in assay [2], 33.5 nM; at PDGFRβ (read-out: PDGFR Cellular IC50) it was 3000 nM.

Turning to `COCCn1cc(-c2cn3ncc(C(=O)Nc4cc(NC(=O)C[C@@H]5CCCN5C(C)C)cnc4C)c3s2)cn1` [Example 451, (S)—N-(5-(2-(1-isopropylpyrrolidin-2-yl)acetamido)-2-methylpyridin-3-yl)-2-(1-(2-methoxyethyl)-1H-pyrazol-4-yl)pyrazolo[5,1-b]thiazole-7-carboxamide], the IC50 was determined as 0.8 nM in assay [1], 16.1 nM in assay [2] and 67 nM on PDGFRβ (read-out: PDGFR Cellular IC50).

Turning to `Cc1ncc(NC(=O)CN2C[C@@H](C)O[C@H](C)C2)cc1NC(=O)c1cnn2cc(-c3cnn(CCS(C)(=O)=O)c3)sc12` (relative stereo) [Example 432, N-(5-(2-(trans-2,6-dimethylmorpholino)acetamido)-2-methylpyridin-3-yl)-2-(1-(2-(methylsulfonyl)ethyl)-1H-pyrazol-4-yl)pyrazolo[5,1-b]thiazole-7-carboxamide], the IC50 in assay [1] is 1.1 nM; in assay [2] it was 9.2 nM; against PDGFRβ (PDGFR Cellular IC50), 420 nM.

Consider `Cc1ncc(NC(=O)CN2CCCC23CCC3)cc1NC(=O)c1cnn2cc(-c3cnn4c3COCC4)sc12` [Example 417, N-(5-(2-(5-azaspiro[3.4]octan-5-yl)acetamido)-2-methylpyridin-3-yl)-2-(6,7-dihydro-4H-pyrazolo[5,1-c][1,4]oxazin-3-yl)pyrazolo[5,1-b]thiazole-7-carboxamide], for which the results for the IC50 (in assay [1]; in assay [2]; against PDGFRβ (PDGFR Cellular IC50)) were 0.4 nM, 2.8 nM and 2.6 nM, respectively.

For the molecule `Cc1ncc(C(=O)NCCN2CC3CCC2CC3)cc1NC(=O)c1cnn2cc(-c3cnn4c3CCC4)sc12` [Example 480, N-(5-((2-(2-azabicyclo[2.2.2]octan-2-yl)ethyl)carbamoyl)-2-methylpyridin-3-yl)-2-(5,6-dihydro-4H-pyrrolo[1,2-b]pyrazol-3-yl)pyrazolo[5,1-b]thiazole-7-carboxamide], the IC50 in assay [1] is 0.3 nM; in assay [2], 2.5 nM; on PDGFRβ (read-out: PDGFR Cellular IC50) it was 19.5 nM.

`Cc1ncc(NC(=O)CC2CN(C)C2)cc1NC(=O)c1cnn2cc(-c3cnn4c3CCC4)sc12` [Example 468, 2-(5,6-dihydro-4H-pyrrolo[1,2-b]pyrazol-3-yl)-N-(2-methyl-5-(2-(1-methylazetidin-3-yl)acetamido)pyridin-3-yl)pyrazolo[5,1-b]thiazole-7-carboxamide]: the values for the IC50 (in assay [1]; in assay [2]; at PDGFRβ (read-out: PDGFR Cellular IC50)) were 2.1 nM, 149 nM and 2000 nM, respectively.

As for `Cc1ncc(C(=O)NCCN2CC3CCC2CC3)cc1NC(=O)c1cnn2cc(-c3cnn4c3COCC4)sc12` [Example 459, N-(5-((2-(2-azabicyclo[2.2.2]octan-2-yl)ethyl)carbamoyl)-2-methylpyridin-3-yl)-2-(6,7-dihydro-4H-pyrazolo[5,1-c][1,4]oxazin-3-yl)pyrazolo[5,1-b]thiazole-7-carboxamide], the 50% inhibitory concentration (IC50) in assay [1] stood at 0.3 nM; in assay [2] it was 1.5 nM; on PDGFRβ (read-out: PDGFR Cellular IC50), 33.7 nM.

As to `COc1ccncc1-c1cn2ncc(C(=O)Nc3cc(NC(=O)CN4CC(C)(C)C4)cnc3C)c2s1` [Example 40, N-(5-(2-(3,3-dimethylazetidin-1-yl)acetamido)-2-methylpyridin-3-yl)-2-(4-methoxypyridin-3-yl)pyrazolo[5,1-b]thiazole-7-carboxamide], the IC50 in assay [1] is 0.27 nM; in assay [2], 1.7 nM; on PDGFRβ (read-out: PDGFR Cellular IC50), 2 nM.

Regarding `Cc1ncc(NC(=O)CN2CCC2)cc1NC(=O)c1cnn2cc(-c3cnn4c3OCCC4)sc12` [Example 412, N-(5-(2-(azetidin-1-yl)acetamido)-2-methylpyridin-3-yl)-2-(6,7-dihydro-5H-pyrazolo[5,1-b][1,3]oxazin-3-yl)pyrazolo[5,1-b]thiazole-7-carboxamide], the IC50 was 1.4 nM in assay [1], 34.6 nM in assay [2] and 77.2 nM on PDGFRβ (read-out: PDGFR Cellular IC50).

Consider `Cc1ncc(NC(=O)CC2CN(C)C2)cc1NC(=O)c1cnn2cc(-c3cnn4c3CCC4)sc12` [Example 427, 2-(5,6-dihydro-4H-pyrrolo[1,2-b]pyrazol-3-yl)-N-(2-methyl-5-(2-(1-methylazetidin-3-yl)acetamido)pyridin-3-yl)pyrazolo[5,1-b]thiazole-7-carboxamide], for which the IC50 in assay [1] was 2.1 nM; in assay [2] it was 150 nM; at PDGFRβ (read-out: PDGFR Cellular IC50), > 2000 nM.

On to `Cc1ncc(NC(=O)CNCC(C)C)cc1NC(=O)c1cnn2cc(-c3cnn4c3OCCC4)sc12` [Example 414, 2-(6,7-dihydro-5H-pyrazolo[5,1-b][1,3]oxazin-3-yl)-N-(5-(2-(isobutylamino)acetamido)-2-methylpyridin-3-yl)pyrazolo[5,1-b]thiazole-7-carboxamide], for which the results for the IC50 (in assay [1]; in assay [2]; at PDGFRβ (read-out: PDGFR Cellular IC50)) were 0.4 nM, 3.3 nM and 6.2 nM, respectively.

As to `Cc1ncc(NC(=O)CN2CC(C)(C)C2)cc1NC(=O)c1cnn2cc(-c3cnn(CCS(C)(=O)=O)c3)sc12` [Example 435, N-(5-(2-(3,3-Dimethylazetidin-1-yl)acetamido)-2-methylpyridin-3-yl)-2-(1-(2-(methylsulfonyl)ethyl)-1H-pyrazol-4-yl)pyrazolo[5,1-b]thiazole-7-carboxamide], the IC50 in assay [1] stood at 0.6 nM; in assay [2] it was 6.8 nM; at PDGFRβ (read-out: PDGFR Cellular IC50) it was 139 nM.

In the case of `COCCn1cc(-c2cn3ncc(C(=O)Nc4cc(NC(=O)C5(CN6CCC[C@@H]6C)CC5)cnc4C)c3s2)cn1` [Example 452, (S)-2-(1-(2-methoxyethyl)-1H-pyrazol-4-yl)-N-(2-methyl-5-(1-((2-methylpyrrolidin-1-yl)methyl)cyclopropanecarboxamido)pyridin-3-yl)pyrazolo[5,1-b]thiazole-7-carboxamide], the values for the IC50 (in assay [1]; in assay [2]; at PDGFRβ (read-out: PDGFR Cellular IC50)) were 12.1 nM, 376 nM and 91.6 nM, respectively.

In the case of `Cc1ncc(NC(=O)CN2CC(C)(C)C2)cc1NC(=O)c1cnn2cc(-c3cn(C)nc3C)sc12` [Example 430, 2-(1,3-Dimethyl-1H-pyrazol-4-yl)-N-(5-(2-(3,3-dimethylazetidin-1-yl)acetamido)-2-methylpyridin-3-yl)pyrazolo[5,1-b]thiazole-7-carboxamide], the IC50 in assay [1] turned out to be 0.2 nM; in assay [2] it was 1.8 nM; on PDGFRβ (read-out: PDGFR Cellular IC50), 1 nM.

On to `Cc1ncc(C(=O)NCCN2CC(C)(C)C2)cc1NC(=O)c1cnn2cc(-c3cnn4c3OCCC4)sc12` [Example 479, 2-(6,7-dihydro-5H-pyrazolo[5,1-b][1,3]oxazin-3-yl)-N-(5-((2-(3,3-dimethylazetidin-1-yl)ethyl)carbamoyl)-2-methylpyridin-3-yl)pyrazolo[5,1-b]thiazole-7-carboxamide], for which the concentration for half-maximal inhibition (IC50) was 0.3 nM in assay [1], 2 nM in assay [2] and 97.1 nM at PDGFRβ (read-out: PDGFR Cellular IC50).

As to `Cc1ncc(NC(=O)CN2CC(C)(C)C2)cc1NC(=O)c1cnn2cc(-c3cncnc3)sc12` [Example 429, N-(5-(2-(3,3-dimethylazetidin-1-yl)acetamido)-2-methylpyridin-3-yl)-2-(pyrimidin-5-yl)pyrazolo[5,1-b]thiazole-7-carboxamide], the half-inhibitory concentration (IC50) in assay [1] amounted to 6.3 nM; in assay [2], 185 nM; at PDGFRβ (read-out: PDGFR Cellular IC50), 30.9 nM.

As for `CCCNCC(=O)Nc1cnc(C)c(NC(=O)c2cnn3cc(-c4cnn5c4CCC5)sc23)c1` [Example 456, 2-(5,6-dihydro-4H-pyrrolo[1,2-b]pyrazol-3-yl)-N-(2-methyl-5-(2-(propylamino)acetamido)pyridin-3-yl)pyrazolo[5,1-b]thiazole-7-carboxamide], the IC50 in assay [1] was found to be 0.4 nM; in assay [2], 4.7 nM; on PDGFRβ (read-out: PDGFR Cellular IC50), 11 nM.

For `Cc1ncc(NC(=O)CN2CCCC2(C)C)cc1NC(=O)c1cnn2cc(-c3cccn(CCF)c3=O)sc12` [Example 449, N-(5-(2-(2,2-dimethylpyrrolidin-1-yl)acetamido)-2-methylpyridin-3-yl)-2-(1-(2-fluoroethyl)-2-oxo-1,2-dihydropyridin-3-yl)pyrazolo[5,1-b]thiazole-7-carboxamide], the IC50 in assay [1] was determined as 0.7 nM; in assay [2], 9.1 nM; on PDGFRβ (read-out: PDGFR Cellular IC50), 10.6 nM.

Regarding `COC1(C)CN(CC(=O)Nc2cnc(C)c(NC(=O)c3cnn4cc(-c5cn(C)nc5C)sc34)c2)C1` [Example 442, 2-(1,3-Dimethyl-1H-pyrazol-4-yl)-N-(5-(2-(3-methoxy-3-methylazetidin-1-yl)acetamido)-2-methylpyridin-3-yl)pyrazolo[5,1-b]thiazole-7-carboxamide], the figures for the IC50 (in assay [1]; in assay [2]; at PDGFRβ (read-out: PDGFR Cellular IC50)) were 0.3 nM, 3.1 nM and 8.1 nM, respectively.

The values above are taken from patent US20240109917A1 (ACTELION PHARMACEUTICALS LTD, priority 2020, published 2024).
